# Data taken from patent US20210139943A1, “MEDIUM AND PROCESS FOR THE CULTURE AND SELECTIVE ISOLATION OF THE BACTERIUM ENTEROCOCCUS HIRAE” (FONDATION MEDITERRANEE INFECTION, priority 2017, published 2021).
# Legend:
# E. faecalis [1] = test: Determination of sugar: colour change on medium with indicator dye; type: cell-based, Enterococcus faecalis; conditions: sugar in medium with bromocresol purple indicator dye
# Source text: (§1) To detect the consumption of sugar by bacteria, the inventors added to the medium of the present invention an indicator dye whose colour will vary according to the pH of the medium. Indeed, when the bacteria consume sugar, there is an acidification of the medium, which leads to a change in the indicator dye. To determine the most appropriate indicator dyer, the inventors tested several, including the following three: phenol red, bromocresol green and bromocresol purple. Based on concentrations in media already containing one of these indicator dyes, the inventors first chose to test a concentration of 25 mg/L [12] for each of the chosen indicators.
# (§2) Once the indicator dye was chosen, the inventors were able to determine which sugar was most suitable for the present invention.
# (§3) Finally, the last sugar tested was mannitol. […] The inventors therefore chose mannitol as sugar for the formulation of said invention, at a concentration of 10 g/L, a concentration frequently found in culture media.
# E. faecium [2] = test: as above; type: cell-based, Enterococcus faecium; conditions: sugar in medium with bromocresol purple indicator dye
# Source text: as §1, §2
# This sugar cannot therefore be used to isolate E. hirae.
# as §3
# E. hirae [3] = test: as above; type: cell-based, Enterococcus hirae; conditions: sugar in medium with bromocresol purple indicator dye
# Source text: as §1, §2, §3
# E. faecium [4] = test: Growth on media with different salt concentrations; type: cell-based, Enterococcus faecium; conditions: 60 g/L, 65 g/L, 70 g/L and 75 g/L salt
# Method: (§4) Since enterococci are resistant to high salt concentrations, in order to eliminate some Gram-positive bacteria other than enterococci and Gram-negative bacteria resistant to the inhibitors mentioned above, different concentrations of salt (sodium chloride) were tested to find the most appropriate one to add to the formulation of the present invention. Four concentrations were tested (60 g/L, 65 g/L, 70 g/L and 75 g/L).
# E. hirae [5] = test: Growth on media with different salt concentrations; type: cell-based, Enterococcus hirae
# Method: as §4
# E. faecalis [6] = test: Growth on media with different salt concentrations; type: cell-based, Enterococcus faecalis; conditions: 60 g/L, 65 g/L, 70 g/L and 75 g/L salt
# Method: as §4
# [7] = Dilution of nalidixic acid in water; type: physicochemical
# Method: In addition, the concentration of nalidixic acid was reduced from 250 mg/L to no more than 100 mg/L due to its poor dilution in water above 100 mg/L and colistin, a polypeptide antibiotic of the polymyxin family with action on Gram-negative bacteria, was added at a concentration of 25 mg/L to compensate.
# Enterococcus faecium = test system: Enterococcus faecium; set-up: key: Variable refers to the fact that consumption of this sugar by E. faecium is strain dependent; conditions: Table 1, literature data; cited from earlier work
compound,measurement,setting,value
"OC[C@@H](O)[C@@H](O)[C@H](O)[C@H](O)CO [Mannitol, mannitol]",Colour change of E. faecalis colonies,E. faecalis [1],change in the colour of the medium and the colonies
same,Colour change of E. faecium colonies,E. faecium [2],change in the colour of the medium and the colonies
same,Colour change of E. hirae colonies,E. hirae [3],remained colourless
[Cl-].[Na+] [sodium chloride],Growth of E. faecium,E. faecium [4],had growth for each of the concentrations tested
same,Growth of E. hirae,"E. hirae [5]; 60 g/L, 65 g/L, 70 g/L and 75 g/L salt",had growth for each of the concentrations tested
same,Size of E. hirae colonies,"E. hirae [5]; reading the agars at 24 hours, 60 to 75 g/L salt","the higher the salt concentrations, the smaller the colonies"
same,Growth of E. faecalis,E. faecalis [6],had growth for each of the concentrations tested
CCn1cc(C(=O)O)c(=O)c2ccc(C)nc21 [nalidixic acid],Dilution in water (poor above this concentration),[7],no more than 100 mg/L
"OC[C@H]1O[C@H](OCC2O[C@@H](O)[C@H](O)[C@@H](O)[C@@H]2O)[C@H](O)[C@@H](O)[C@H]1O (stereo partly drawn) [Melibiose, melibiose]",Colour change of E. faecium colonies,E. faecium [2],variable results
same,Sugar consumption by Enterococcus faecium,Enterococcus faecium,V
"OC[C@H]1O[C@H](OC[C@H]2O[C@H](O[C@]3(CO)O[C@H](CO)[C@@H](O)[C@@H]3O)[C@H](O)[C@@H](O)[C@@H]2O)[C@H](O)[C@@H](O)[C@H]1O [Raffinose, raffinose]",Colour change of E. faecalis colonies,E. faecalis [1],no colour change
same,Colour change of E. faecium colonies,E. faecium [2],no colour change
